Assay results: US20230128730A1, “OXYGEN IMPERMEABLE PORPHYRIN PHOTOSENSITIZER FILM COMPOSITION FOR APPLICATION TO PLANTS” (SUNCOR ENERGY INC., priority 2020, published 2023)

Tests used:
[1] = tested on: Pseudomonas syringae pv. tabaci; test: In vitro photodynamic inactivation of Pseudomonas syringae pv. tabaci with modified Ce6; format: cell-based
Procedure: Experiments were conducted to evaluate control of the gram-negative bacterial plant pathogen Pseudomonas syringae pv. tabaci with modified Ce6. Treatments were prepared in Phosphate Buffered Saline (PBS) in 96 well plates at desired concentrations. A bacterial suspension was inoculated into the PBS and incubated at 28° C. in the dark for 30 min. After 30 min, the 96 well plate was placed under illumination for 1 hour (at 21° C.). A separate plate prepared at the same time was kept in the dark without illumination and served as dark control. Following illumination, bacterial suspensions were serially diluted and 10 μL of each dilution was spread uniformly on Tryptic Soy Agar (TSA) plates and placed in the dark in an incubator at 28° C. for 48 hours. After 48 hours, bacterial colonies were counted and results were log transformed (log colony forming units (CFU)/mL). The relative inactivation was determined by taking the difference between log CFU(PBS control) and log CFU (treatments). Sample Illumination was provided by LED lights (Heliospectra RX30) emitting about 1000 μmol/m^2/s photosynthetically active radiation (PAR).

[2] = tested on: Sclerotinia homoeocarpa; test: Agar protocol: control of dollar spot fungus with modified Ce6; format: cell-based; details: Agar data, 10 uM
Procedure: Agar protocol: control of dollar spot fungus (Sclerotinia homoeocarpa) with modified Ce6 was assessed. Treatments were amended into Potato Dextrose Agar (PDA) at desired concentrations. Then, a 5 mm diameter plug of a Sclerotinia homoeocarpa isolate (3 isolates total tested) was inoculated into the center of the amended Petri-dish and incubated at 21° C. in the dark for 24 hours. After 24 hours, one set of Petri-dishes (in triplicate) was left in the dark and one set was placed under illumination for the remainder of the experiment (all at 21° C.). Radial growth of the fungus was monitored daily until the growth of S. homoeocarpa on non-amended PDA reaches the edge of the Petri-dish. Illumination was provided by fluorescent lights emitting about 180 μmol/m2/s photosynthetically active radiation (PAR).

[3] = Method A: photostability in a non-hydrated state (solid state), dried films under LED light; format: physicochemical; details: various tetrapyrroles; PVOH 89 kDa, >99% hydrolysis and tannic acid; 72 h simulated sunlight
Procedure: Fifty microlitres of each formulation was pipetted into 12 wells of a 96-well clear-bottom black microplate (Thomas Scientific, Swedesboro, N.J.) and dried into thin films using a dehydrator (Gourmia GFD1680) at a temperature of 45° C. for 3 h. At the beginning of the experiment, the microplate was placed under a Heliospectra RX30 LED light array (Heliospectra, San […], Calif.). The LED array was adjusted such that the microplates received on average 1300 μmol/m^2/s of light intensity. The microplate was tightly covered with aluminum foil and at select intervals peeled back to irradiate films with either 0 h, 24 h, 48 h or 72 h of light. […] An absorbance spectral scan was conducted on the microplate (350-750 nm) using a plate reader (Spectramax M2E, Molecular Devices, San Jose, Calif.) and the peak intensity was monitored at 24 h, 48 h and/or 72 h timepoints and compared with the corresponding 0 h timepoint to determine the degree of photodegradation. The % photosensitizer remaining after irradiation was calculated using the following equation: [formula] where Abst is the absorbance peak of the sample receiving t hours of light exposure; Abs0 is the absorbance peak of the sample receiving no light exposure. All data is expressed as mean±standard deviation.

[4] = tested on: Sclerotinia homoeocarpa; test: Broth protocol: control of dollar spot fungus with modified chlorins; format: cell-based; details: Broth data; for Inhibition, % (Light): light 1 hour, about 1000 μmol/m2/s PAR
Procedure: Broth protocol: control of dollar spot fungus (Sclerotinia homoeocarpa) with modified chlorins was assessed. Treatments were prepared in Phosphate Buffered Saline (PBS) in 24 well plates (in duplicates for light vs. dark incubation) at desired concentrations. Then, a 5 mm diameter plug of a Sclerotinia homoeocarpa isolate (3 isolates total tested) was inoculated into the PBS and incubated at 21° C. in the dark for 2 hours. After 2 hours, one of the 24 well plates (with isolates in triplicate) was left in the dark and one 24 well plate was placed under illumination for 1 hour (all at 21° C.). Following illumination, fungal plugs were removed from PBS, blotted dry on sterile filter paper and transferred to non-amended Potato Dextrose Agar (PDA). Radial growth of the fungus was monitored daily until the growth of S. homoeocarpa reached the edge of the Petri-dish. Illumination was provided by LED lights emitting about 1000 μmol/m2/s photosynthetically active radiation (PAR).

[5] = tested on: Kentucky bluegrass (Poa pratensis); test: Kentucky bluegrass tolerance to salt stress (turf quality); format: in vivo; details: 170 mM NaCl, 2 salt applications; scale of 1-9 (1=dead, 9=healthy); untreated control 5
Procedure: Kentucky bluegrass (Poa pratensis) was grown under greenhouse conditions for ˜3 weeks. After 3 weeks, plants were sprayed with formulations and allowed to sit for 24 hours, after which the pots were placed in a 170 mM NaCl solution until the soil was saturated. The salt application was repeated again 7 days later for a total of 2 salt applications. Salinity stress was evaluated based on a turf quality scale of 1-9; where 1=dead, brown turf; 6=minimally acceptable turf quality (based on standards for golf courses or sports fields); and 9=dense, dark green turf (healthy). Data are average of 5 replicates.

[6] = Method B: photostability in solution (liquid state) under LED light; format: physicochemical; details: various tetrapyrroles; PVOH 89 kDa, >99% hydrolysis and tannic acid; 6 h simulated light
Procedure: Fifty microlitres of each formulation was pipetted into 12 wells of a 96-well clear-bottom black microplate (Thomas Scientific, Swedesboro, N.J.), followed by the addition of 50 μL dH2O. The sample was sealed with a microplate clear adhesive film to minimize water evaporation. At the beginning of experiment, the microplate was placed under a Heliospectra RX30 LED light array (Heliospectra, San […], Calif.). The LED array was adjusted such that the microplates received on average 1300 μmol/m^2/s of light intensity. […] The % photosensitizer remaining after irradiation was calculated using the following equation: [formula] where Abst is the absorbance peak of the sample receiving t hours of light exposure; Abs0 is the absorbance peak of the sample receiving no light exposure. All data is expressed as mean±standard deviation.

[7] = tested on: Pseudomonas syringae pv. tabaci; test: In vitro effect of PP IX and modified PP IX on Pseudomonas syringae pv. tabaci, with and without chelating agent; format: cell-based; details: 10 μM; illumination 1 hour, about 1000 μmol/m^2/s PAR; PBS control 8.7
Procedure: In this example, control of the gram-negative bacterial plant pathogen Pseudomonas syringae pv. tabaci with PP IX and modified PP IX was assessed, with and without chelating agents. Treatments were prepared in Phosphate Buffered Saline (PBS) in 96 well plates at desired concentrations. A bacterial suspension was inoculated into the PBS and incubated at 28° C. in the dark for 30 minutes. After 30 minutes, the 96 well plate was placed under illumination for 1 hour (at 21° C.). Following illumination, bacterial suspensions were serially diluted and 10 μL of each dilution is spread uniformly on Tryptic Soy Agar (TSA) plates and placed in the dark in an incubator at 28° C. for 48 hours. After 48 hours, bacterial colonies were counted, and the results were log transformed (log colony forming units (CFU)/mL). The relative inactivation was determined by taking the difference between log CFU(PBS control) and log CFU(treatments). Sample Illumination was provided by LED lights (Heliospectra RX30) emitting about 1000 μmol/m^2/s photosynthetically active radiation (PAR).

| Substance | Relative Inactivation (log[CFUcontrol mL^−1] − log[CFUtreatment mL^−1]), Dark ([1]; dark control plate) [log CFU mL^−1] | Relative Inactivation (log[CFUcontrol mL^−1] − log[CFUtreatment mL^−1]), Light ([1]; illumination 1 hour, about 1000 μmol/m^2/s PAR, where no colonies remained value set to 1 CFU/mL) [log CFU mL^−1] | Inhibition, % (Dark) ([2]; dark) [%] | Inhibition, % (Light) ([2]; light about 180 μmol/m2/s PAR) [%] | % photosensitizer remaining at 72 h (solid state) [3] | Inhibition, % (Dark) ([4]; 10 uM) [%] | Inhibition, % (Light) ([4]; 10 uM) [%] | Inhibition, % (Dark) ([4]; 100 uM) [%] | Inhibition, % (Light) ([4]; 100 uM) [%] | Turf Quality [5] | % photosensitizer remaining at 6 h (liquid state) [6] [%] | log CFU/ml [7] [log CFU/ml] |
| --- | --- | --- | --- | --- | --- | --- | --- | --- | --- | --- | --- | --- |
| Chlorin e6, trisodium salt [Ce6Na3, reference compound] | −0.03 ± 0.13 | 0.39 ± 0.29 | 26 | 74 | 84.2 ± 7^ % | −4 | 53 | 16 | 66 | 6 | 19.4 ± 0.5 | – |
| Protoporphyrin IX disodium salt [PP IX disodium salt] | – | – | – | – | – | – | – | – | – | – | – | 7.4 |
